Measurements reported in patent US9149038B2, “4-amino-6-(heterocyclic)picolinates and 6-amino-2-(heterocyclic)pyrimidine-4-carboxylates and their use as herbicides” (Dow AgroSciences LLC, priority 2013, dated 2015).
Like-named read-outs stand apart in the source and are kept apart here.

Assays:
[1] = test system: Key Broadleaf Weed and Crop Species; assay: Post-Emergent Test II: postemergent herbicidal activity, visual rating after 14 d (Table 7); assay type: in vivo; settings: post-emergence, 336 h; for pest or weed control at 35 g/ha: 35 g ai/ha; for pest or weed control at 70 g/ha: 70 g ai/ha; for pest or weed control at 140 g/ha: 140 g ai/ha
Procedure, shortened: (§1)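 Scoring is visual, 0-100, at 14 d after application, comparing treated with untreated plants. Application: overhead track spray at 187 L/ha onto seedlings at 1-2 true leaves, in surfactant/crop-oil carrier.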

[2] = test system: Key Grass and Sedge Weeds as well as Grass Crops; assay: Post-Emergent Test II: postemergent herbicidal activity, visual rating after 14 d (Table 8); assay type: in vivo; settings: post-emergence, 336 h; for pest or weed control at 35 g/ha: 35 g ai/ha; for pest or weed control at 70 g/ha: 70 g ai/ha; for pest or weed control at 140 g/ha: 140 g ai/ha
Procedure, shortened: as §1

[3] = ABUTH: velvetleaf (Abutilon theophrasti), read-out: Visual Growth Reduction (%) 14 Days After Application ABUTH
[4] = AMARE: redroot pigweed (Amaranthus retroflexus), read-out: Visual Growth Reduction (%) 14 Days After Application AMARE
[5] = BRSNN: oilseed rape, canola (Brassica napus), read-out: Visual Growth Reduction (%) 14 Days After Application BRSNN
[6] = CHEAL: lambsquarters (Chenopodium album), read-out: Visual Growth Reduction (%) 14 Days After Application CHEAL
[7] = EPHHL: wild poinsettia (Euphorbia heterophylla), read-out: Visual Growth Reduction (%) 14 Days After Application EPHHL
[8] = HELAN: sunflower (Helianthus annuus), read-out: Visual Growth Reduction (%) 14 Days After Application HELAN
[9] = barnyardgrass (Echinochloa crus-galli), read-out: Visual Growth Reduction (%) 14 Days After Application, ECHCG
[10] = giant foxtail (Setaria faberi), read-out: Visual Growth Reduction (%) 14 Days After Application, SETFA
[11] = maize, corn (Zea mays), read-out: Visual Growth Reduction (%) 14 Days After Application, ZEAMX
[12] = rice (Oryza sativa), read-out: Visual Growth Reduction (%) 14 Days After Application, ORYSA
[13] = wheat, spring (Triticum aestivum), read-out: Visual Growth Reduction (%) 14 Days After Application, TRZAS
[14] = yellow nutsedge (Cyperus esculentus), read-out: Visual Growth Reduction (%) 14 Days After Application, CYPES

Nc1cc(-c2c(F)ccc3c2OC(F)(F)O3)nc(C(=O)O)c1Cl [Compound 91]
pest or weed control at 35 g/ha [1, 3]: 60 to 74% | pest or weed control at 70 g/ha [1, 3]: 75 to 84% | pest or weed control at 140 g/ha [1, 3]: 75 to 84% | pest or weed control at 35 g/ha [1, 4]: 95 to 100% | pest or weed control at 70 g/ha [1, 4]: 95 to 100% | pest or weed control at 140 g/ha [1, 4]: 95 to 100% | pest or weed control at 35 g/ha [1, 5]: 0 to 29% | pest or weed control at 70 g/ha [1, 5]: 45 to 59% | pest or weed control at 140 g/ha [1, 5]: 60 to 74% | pest or weed control at 35 g/ha [1, 6]: 95 to 100% | pest or weed control at 70 g/ha [1, 6]: 95 to 100% | pest or weed control at 140 g/ha [1, 6]: 95 to 100% | pest or weed control at 35 g/ha [1, 7]: 0 to 29% | pest or weed control at 70 g/ha [1, 7]: 0 to 29% | pest or weed control at 140 g/ha [1, 7]: 0 to 29% | pest or weed control at 35 g/ha [1, 8]: 0 to 29% | pest or weed control at 70 g/ha [1, 8]: 0 to 29% | pest or weed control at 140 g/ha [1, 8]: 0 to 29% | pest or weed control at 35 g/ha [2, 9]: 0 to 29% | pest or weed control at 70 g/ha [2, 9]: 0 to 29% | pest or weed control at 140 g/ha [2, 9]: 0 to 29% | pest or weed control at 35 g/ha [2, 10]: 0 to 29% | pest or weed control at 70 g/ha [2, 10]: 0 to 29% | pest or weed control at 140 g/ha [2, 10]: 0 to 29% | pest or weed control at 35 g/ha [2, 11]: 0 to 29% | pest or weed control at 70 g/ha [2, 11]: 0 to 29% | pest or weed control at 140 g/ha [2, 11]: 0 to 29% | pest or weed control at 35 g/ha [2, 12]: 0 to 29% | pest or weed control at 70 g/ha [2, 12]: 0 to 29% | pest or weed control at 140 g/ha [2, 12]: 0 to 29% | pest or weed control at 35 g/ha [2, 13]: 0 to 29% | pest or weed control at 70 g/ha [2, 13]: 0 to 29% | pest or weed control at 140 g/ha [2, 13]: 0 to 29% | pest or weed control at 35 g/ha [2, 14]: 0 to 29% | pest or weed control at 70 g/ha [2, 14]: 0 to 29% | pest or weed control at 140 g/ha [2, 14]: 0 to 29%
